Test results taken from patent US20230250054A1, “SELECTIVE HISTONE DEACETYLASE 6 INHIBITORS” (The Board of Trustees of the University of Illinois, priority 2020, published 2023).
Entries after “also recorded” stand apart in the source; their conditions may differ.

Tests used:
[1] = system: STAT3; experiment: IL-6 induced STAT3 phosphorylation in WM164 melanoma cells; type: cell-based, human; settings: WM164 cells pre-treated with 5 μM, then IL-6 (30 ng/mL) for 20 min, vs IL-6 alone
Protocol: (§1) The SM1 murine melanoma cells were obtained from Dr. A. Ribas at the University of California, Los Angeles. WM164 human melanoma cells were obtained from ATCC. The cells were cultured in an incubator in RPMI 1640, 1% penicillin-streptomycin, and 10% fetal bovine serum at 37° C. with 5% CO2. […] For STAT3 phosphorylation assays, cells were pre-treated with or without HDAC6i (5 μM) for overnight followed by treatment with recombinant human IL-6 (Biolegend) for 20 min. PBS was added as a control. RAW 264.7 macrophages were purchased from ATCC and cultured in DMEM medium supplemented with 10% FBS, 1% non-essential amino acids, and 2-mercaptoethanol (50 μM). […] Cytotoxicity assay was performed using CellTox Green (Promega, Cat #G8731) following the manufacturer's instructions, and fluorescence readings were obtained on Spectramax i3 (Molecular Devices) multimode plate reader at wavelengths EX 485 nm and EM 520 nm. […]
(§2) The cells were harvested and lysed with RIPA buffer (ThermoScientific, 89900) containing protease and phosphatase inhibitors (ThermoScientific, 78440) by sonication in Bioruptor (Diagenode) for 8 cycles of 30 seconds ON and 30 seconds OFF on high setting. To assess the expression of proteins, total protein samples were heat-denatured in SDS sample loading buffer, and 15-20 μg of protein was analysed on 4-20% SDS-PAGE gels (Bio-Rad, 456-1093). […]

[2] = system: immune cells; experiment: Immune cell phenotyping by flow cytometry in the SM1 melanoma model; type: in vivo, C57BL/6 mice
Protocol: To understand the immunomodulatory properties of Suprastat, a comprehensive immune cell phenotyping by flow cytometry was performed. […] (see, e.g., Knox et al., Sci. Rep. 9: 6136 (2019)). […] A significant change in immunosuppressive T-regs (FIG. 6F) was not observed. […] (see, e.g., Knox et al., Sci. Rep. 9: 6136 (2019)).

[3] = system: IL10 gene; experiment: IL10 gene expression by quantitative PCR in bone marrow-derived macrophages; type: cell-based; settings: mouse bone marrow-derived macrophages, 5 μM, vs vehicle, mRNA quantification
Protocol: Total RNA was isolated from cells following the manufacturer's instructions of QIAzol (Qiagen, 79306). RNA quantification was done using NanoDrop One spectrophotometer (NanoDrop Technologies). Samples with absorbance at 260/280 ratios over 1.9 were used for cDNA synthesis with iScript cDNA synthesis kit (Bio-Rad, 1708891). Synthesized cDNA from 1 μg of total RNA was diluted 1:10 with nuclease-free water. The quantitative PCR analysis was performed using iQ SYBR Green Supermix (Bio-Rad, 1708882) on CFX96 real-time system (Bio-Rad). Gene expression analysis was performed using 2^−ΔΔCt method, and target mRNA levels were normalized to GAPDH expression. Cycling conditions were used as per manufacturer's instructions. Single PCR product amplification was confirmed by melting curve analysis in all the experiments performed. The sequence of primers used in the analysis are as follows: […]
Immune cells, such as macrophages, are a major cellular component of the tumor microenvironment. Tumor-associated macrophages are often tumor promoting by secreting anti-inflammatory cytokines such as TGFβ and IL-10. It was previously established that HDAC6 forms a complex with STAT3, and either pharmacological inhibition or shRNA mediated knockdown of HDAC6 decreased STAT3 recruitment at the IL10 promoter region in antigen-presenting cells (see, e.g., Cheng et al., J. Immunol. 193: 2850-2862 (2014)). […]

[4] = system: SM1 melanoma tumors; experiment: Syngeneic SM1 murine melanoma model, tumor growth; type: in vivo; settings: C57BL/6 mice with SM1 tumors; Suprastat 25 mg/kg IP, anti-PD1 15 mg/kg IP; vs control (PBS)
[5] = system: Ac-α-tubulin; experiment: Immunoblot of Ac-α-tubulin in WM164 melanoma cells; type: cell-based, human; settings: 0.1 to 10 μM, overnight
Protocol: as §1, §2

[6] = system: Ac—H3; experiment: Immunoblot of Ac-H3 in WM164 melanoma cells; type: cell-based, human; settings: 0.1 to 10 μM, overnight
Protocol: as §1, §2

[7] = in vitro; settings: rat, liver microsomes
[8] = system: Ac-α-tubulin; experiment: Immunoblot of Ac-α-tubulin in RAW 264.7 macrophages; type: cell-based; settings: 1, 5, and 10 μM, overnight, listed as Suprastat
Protocol: as §1, §2

[9] = system: SM1 murine melanoma cells; experiment: CellTox Green cytotoxicity assay in SM1 cells; type: cell-based; settings: 24 h
Protocol: The SM1 murine melanoma cells were obtained from Dr. A. Ribas at the University of California, Los Angeles. WM164 human melanoma cells were obtained from ATCC. The cells were cultured in an incubator in RPMI 1640, 1% penicillin-streptomycin, and 10% fetal bovine serum at 37° C. with 5% CO2. […] For STAT3 phosphorylation assays, cells were pre-treated with or without HDAC6i (5 μM) for overnight followed by treatment with recombinant human IL-6 (Biolegend) for 20 min. PBS was added as a control. RAW 264.7 macrophages were purchased from ATCC and cultured in DMEM medium supplemented with 10% FBS, 1% non-essential amino acids, and 2-mercaptoethanol (50 μM). RAW macrophages were treated with 1 μM, 5 μM, and 10 μM of Suprastat overnight before collecting the lysates for immunoblot assay. Cytotoxicity assay was performed using CellTox Green (Promega, Cat #G8731) following the manufacturer's instructions, and fluorescence readings were obtained on Spectramax i3 (Molecular Devices) multimode plate reader at wavelengths EX 485 nm and EM 520 nm. SM1 cells were treated with compounds at various concentrations for 24 h to determine cytotoxicity.

Row | SMILES | Y705 phosphorylation of STAT3 [1] | F4/80+CD206+ pro-tumor M2 macrophages ([2]; flow cytometry) | natural killer (NK) cells ([2]; flow cytometry) | percentage of CD8+ central memory (CM) cells ([2]; flow cytometry) | M1/M2 ratio ([2]; relative to control and anti-PD1 groups) | expression of IL10 gene [3] | tumor burden (tumor volume) [4] | levels of acetylated α-tubulin (Ac-α-tubulin) [5] | levels of acetylated histone H3 (Ac—H3) [6] | half-life [7] | levels of Ac-α-tubulin in RAW 264.7 macrophages [8] | concentration at which cytotoxicity starts [9]
1 | NCc1ccc(NC(=O)N(CCCCO)Cc2ccc(C(=O)NO)cc2)cc1 [Compound 6a, 4-((3-(4-(Aminomethyl)phenyl)-1-(4-hydroxybutyl)ureido)methyl)-N-hydroxybenz-amide] | decreased Y705 phosphorylation of STAT3 | significantly decreased | positive trend | increase in the percentage of CD8+ central memory (CM) cells | significantly higher M1/M2 ratio | decreased expression of IL10 gene | reduced the tumor burden | highest Ac-α-tubulin level | slight increase in the levels of Ac—H3 | 2.88 h | dose-dependent effect; also recorded: dose-dependent increase in the levels of Ac-α-tubulin | 
2 | CCCCN(Cc1ccc(C(=O)NO)cc1)C(=O)Nc1ccc(CN)cc1 [Compound 6b, 4-((3-(4-(Aminomethyl)phenyl)-1-butylureido)methyl)-N-hydroxybenzamide] |  |  |  |  |  |  |  |  |  |  |  | 10 µM
